Where “and” joins values, the source holds several entries; their conditions need not be identical. Equal entries are not always repeated. Where two headings read alike, the source gives them in different places.

One assay concerns maltoporin (LamB). On the set-up: method as in PMID 11415317. The note with it: cited from earlier work.
For assay [1], the target named is T1, truncated VhChiP (Vibrio campbellii, UniProt L0RVU0). The experiment in a line: Single-channel BLM recordings, chitohexaose titration of truncated VhChiP (without or with N-plug peptide). The note with it: for K (equilibrium binding constant) / koff / kon: truncated. The assay is classed as binding. The method, then:
Single-channel analysis using the BLM reconstitution technique was performed as described previously ([13], [34], [35]). The lipid bilayer cuvette consisted of a 25-μm thick Teflon film sandwiched between two chambers. […] The chambers were filled with electrolyte solution and Ag/AgCl electrodes immersed on either side of the Teflon film. The electrolyte used was 1 M KCl buffered with 20 mM Hepes, pH 7.4. 1,2-diphytanoyl-sn-glycero-3-phosphatidylcholine (Avanti Polar Lipids) was used for lipid bilayer formation. To form the bilayer, the aperture was first prepainted with 1 μl of 1% (v/v) hexadecane in pentane (Sigma-Aldrich). One of the electrodes was used as the ground (cis), while the other electrode (trans) was connected to the head-stage of an Axopatch 200B amplifier (Axon Instruments). VhChiP (20–100 ng μL^−1) was added to the solution on the cis side of the lipid membrane. At applied transmembrane potentials of ±100 mV, a single channel was frequently inserted within a few minutes. The protein solution in the chamber was then gently diluted by multiple additions of the working electrolyte, to prevent multiple insertions. Single-channel current measurements were performed in the voltage-clamp mode, with the internal filter set at 10 kHz. Amplitude, probability, and single-channel analyses were performed using pClamp v.10.5 software (https://www.moleculardevices.com/products/axon-patch-clamp-system/acquisition-and-analysis-software/pclamp-software-suite) (all from Molecular Devices). […] Occlusions of ion flow caused by sugar diffusion through the inserting channel were usually recorded for 2 min. To determine the kinetics of sugar translocation on individual subunit blockages, discrete concentrations of chitohexaose (0, 0.25, 0.5, and 1.0 μM) was tested. To study channel blocking behaviors of the N-plug, the first nine amino acids (Asp^1-Lys^9) (the so-called N-plug peptide) that plugged the channel was synthesized (GenScript). Two concentrations of the peptide (10 and 40 μM) were added to either the cis or the trans side of the chamber, containing with or without 1 μM of chitohexaose on the cis side.
(§1) The equilibrium binding constant K (M^-1) was estimated from the decrease in the ion conductance in the presence of increasing concentrations of sugar using the following equation ([36]):(1) Gmax−Gc/Gmax=Imax−Ic/Imax=K[C]/(K[C]+1)
(§2) Gmax is the average conductance of the fully open VhChiP channel, and Gc is the average conductance at a given concentration [c] of chitohexaose. Imax is the initial current through the fully open channel in the absence of sugar, and Ic is the current at a particular sugar concentration. The titration experiments were also analyzed using double reciprocal plots.

The target of assay [2] is T2, VhChiP D1A mutant (Vibrio campbellii, UniProt L0RVU0, D26A).
T2 sequence (L0RVU0 26-375 D26A): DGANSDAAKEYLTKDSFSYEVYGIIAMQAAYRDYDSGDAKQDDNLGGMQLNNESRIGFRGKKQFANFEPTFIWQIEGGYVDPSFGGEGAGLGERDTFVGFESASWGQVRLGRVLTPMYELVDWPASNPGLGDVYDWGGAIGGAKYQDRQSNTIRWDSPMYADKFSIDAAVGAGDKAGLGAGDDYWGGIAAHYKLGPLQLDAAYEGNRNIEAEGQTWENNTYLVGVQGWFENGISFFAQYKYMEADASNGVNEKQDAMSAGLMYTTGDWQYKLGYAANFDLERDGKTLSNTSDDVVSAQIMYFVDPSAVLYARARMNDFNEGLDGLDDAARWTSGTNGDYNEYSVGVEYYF
The assay can be described thus: Single-channel BLM recordings, chitohexaose titration of D1A mutant. The conditions noted are these: sugar on cis side. Format: binding. On the procedure: Single-channel analysis using the BLM reconstitution technique was performed as described previously ([13], [34], [35]). The lipid bilayer cuvette consisted of a 25-μm thick Teflon film sandwiched between two chambers. […] The chambers were filled with electrolyte solution and Ag/AgCl electrodes immersed on either side of the Teflon film. The electrolyte used was 1 M KCl buffered with 20 mM Hepes, pH 7.4. 1,2-diphytanoyl-sn-glycero-3-phosphatidylcholine (Avanti Polar Lipids) was used for lipid bilayer formation. To form the bilayer, the aperture was first prepainted with 1 μl of 1% (v/v) hexadecane in pentane (Sigma-Aldrich). One of the electrodes was used as the ground (cis), while the other electrode (trans) was connected to the head-stage of an Axopatch 200B amplifier (Axon Instruments). VhChiP (20–100 ng μL^−1) was added to the solution on the cis side of the lipid membrane. At applied transmembrane potentials of ±100 mV, a single channel was frequently inserted within a few minutes. […] Occlusions of ion flow caused by sugar diffusion through the inserting channel were usually recorded for 2 min. […]
Gmax is the average conductance of the fully open VhChiP channel, and Gc is the average conductance at a given concentration [c] of chitohexaose. […] The titration experiments were also analyzed using double reciprocal plots.

Assay [3] has as its target T1, truncated VhChiP. The assay can be described thus: ITC, chitohexaose into truncated VhChiP. Format: binding. The conditions noted are these: 25 °C. The method, then: (§3) ITC experiments were carried out at least three times using the MicroCal PEAQ-ITC (Malvern Instruments Ltd) at 25 ± 1 °C with a stirring speed of 500 rpm. For titration experiments, 40 μl of chitohexaose or the N-plug was titrated from a syringe into the 300 μl-calorimeter cells containing 0.05% (v/v) LDAO, 20 mM sodium phosphate buffer, pH 7.5, and protein solution. Injections (2 μl per injection) were repeated 19 times over 150-s intervals. The background was measured by injecting the corresponding ligand into the cell containing only the buffer. The ITC data were collected and analyzed using the MicroCal PEAQ-ITC analysis software (https://www.malvernpanalytical.com/en/support/product-support/software/microcal-peaq-itc-analysis-software-v141). The ITC profile obtained by injecting the corresponding ligand into the reaction cell containing buffer without VhChiP was subtracted from the […] dataset. The resultant data were fitted by a single-site binding model with the nonlinear least square algorithm.

The target of a further assay is N-plug peptide (Vibrio campbellii, UniProt L0RVU0). The experiment in a line: ITC, chitohexaose into synthesized N-plug peptide. The assay is classed as binding. The note with it: 25 °C. The method, then:
as §3

In assay [4] the target is T3, WT VhChiP (Vibrio campbellii, UniProt L0RVU0).
T3 sequence (L0RVU0 26-375): T2 sequence (L0RVU0 26-375 D26A)
The assay can be described thus: ITC, chitohexaose into WT VhChiP. Format: binding. The conditions noted are these: 25 °C. The method, then: as §3

The subject of assay [5] is EcChiP. On the set-up: method as in PMID 27226611, PMID 28972167. The conditions noted are these: single-channel analysis; cited from earlier work.
In assay [6] the test system is EcChiP. The experiment in a line: Literature single-channel analysis, EcChiP. The assay is classed as binding, E. coli. The note with it: same sugar.
Assay [7] has as its target T2, VhChiP D1A mutant. The assay can be described thus: ITC, chitohexaose into D1A mutant. Format: binding. The conditions noted are these: 25 °C. On the procedure:
as §3

Assay [8] has as its target truncated VhChiP mixed with the N-plug peptide (Vibrio campbellii, UniProt L0RVU0). The assay can be described thus: ITC, chitohexaose into truncated VhChiP mixed with N-plug peptide. Format: binding. The note with it: 25 °C, protein 20 μM, N-plug 5 μM. On the procedure: as §3
Assay [9] has as its target T3, WT VhChiP. The assay can be described thus: Single-channel BLM recordings, chitohexaose titration of WT VhChiP. Format: binding. The note with it: no N-plug peptide. On the procedure:
Single-channel analysis using the BLM reconstitution technique was performed as described previously ([13], [34], [35]). The lipid bilayer cuvette consisted of a 25-μm thick Teflon film sandwiched between two chambers. […] The chambers were filled with electrolyte solution and Ag/AgCl electrodes immersed on either side of the Teflon film. The electrolyte used was 1 M KCl buffered with 20 mM Hepes, pH 7.4. 1,2-diphytanoyl-sn-glycero-3-phosphatidylcholine (Avanti Polar Lipids) was used for lipid bilayer formation. To form the bilayer, the aperture was first prepainted with 1 μl of 1% (v/v) hexadecane in pentane (Sigma-Aldrich). One of the electrodes was used as the ground (cis), while the other electrode (trans) was connected to the head-stage of an Axopatch 200B amplifier (Axon Instruments). VhChiP (20–100 ng μL^−1) was added to the solution on the cis side of the lipid membrane. At applied transmembrane potentials of ±100 mV, a single channel was frequently inserted within a few minutes. The protein solution in the chamber was then gently diluted by multiple additions of the working electrolyte, to prevent multiple insertions. Single-channel current measurements were performed in the voltage-clamp mode, with the internal filter set at 10 kHz. Amplitude, probability, and single-channel analyses were performed using pClamp v.10.5 software (https://www.moleculardevices.com/products/axon-patch-clamp-system/acquisition-and-analysis-software/pclamp-software-suite) (all from Molecular Devices). To investigate sugar translocation, chitooligosaccharide was added to the cis side of the chamber at a final concentration of 5 μM. Occlusions of ion flow caused by sugar diffusion through the inserting channel were usually recorded for 2 min. To determine the kinetics of sugar translocation on individual subunit blockages, discrete concentrations of chitohexaose (0, 0.25, 0.5, and 1.0 μM) was tested. To study channel blocking behaviors of the N-plug, the first nine amino acids (Asp^1-Lys^9) (the so-called N-plug peptide) that plugged the channel was synthesized (GenScript). Two concentrations of the peptide (10 and 40 μM) were added to either the cis or the trans side of the chamber, containing with or without 1 μM of chitohexaose on the cis side.
as §1, §2

In a further assay the test system is ScrY. Also noted: method as in PMID 9691119. The conditions noted are these: cited from earlier work.
In a further assay the test system is CymA. Also noted: method as in PMID 10455198. The note with it: cited from earlier work.
The target in assay [10] is N-terminally truncated VhChiP (lacking the N-plug) (Vibrio campbellii (formerly Vibrio harveyi) ATCC BAA-1116). The assay can be described thus: crystal structure; truncated VhChiP, ligand-free (C121, a single trimer per asymmetric unit) and cocrystallised with chitohexaose (P1, two trimers per asymmetric unit).
[11] abbreviates: sugar on cis side, N-plug peptide on trans side.
Setting [12] is: sugar on cis side, no N-plug peptide.
Setting [13] is: sugar on trans side, no N-plug peptide.

maltohexaose: in the assay with maltoporin (LamB), the “binding constant (K)” value is given as 13,600 M^−1.

With `CC(=O)NC1C(O)OC(CO)C(OC2OC(CO)C(OC3OC(CO)C(OC4OC(CO)C(OC5OC(CO)C(OC6OC(CO)C(O)C(O)C6NC(C)=O)C(O)C5NC(C)=O)C(O)C4NC(C)=O)C(O)C3NC(C)=O)C(O)C2NC(C)=O)C1O` (stereo not drawn) [chitohexaose], at truncated VhChiP [1] (from Table 2), the “reduction in the binding affinity, truncated vs WT” value was determined as 22.3 fold. The “K (equilibrium binding constant)” value on truncated VhChiP [1] (sugar on cis side, N-plug peptide on cis side) is “incalculable”; at truncated VhChiP [1] (setting [11]), 255,000 M^−1; at truncated VhChiP [1] (setting [12]), 11,000 M^−1; on truncated VhChiP [1] (setting [13]), 23,000 M^−1; on WT VhChiP [9] (WT, sugar on cis side), 250,000 M^−1; at WT VhChiP [9] (WT, sugar on trans side), 240,000 M^−1. In addition, the koff turned out to be 220 ± 10 s⁻¹ on truncated VhChiP [1] (setting [11]); 500 ± 100 s⁻¹ at truncated VhChiP [1] (setting [12]); 300 ± 100 s⁻¹ at truncated VhChiP [1] (setting [13]); 270 ± 400 s⁻¹ on WT VhChiP [9] (WT, sugar on cis side); 210 ± 500 s⁻¹ on WT VhChiP [9] (WT, sugar on trans side, read-out: koff). In addition, the kon at truncated VhChiP [1] (setting [11]) was 5.6e+07 ± 100000 M⁻¹ s⁻¹; at truncated VhChiP [1] (setting [13]), 6.8e+06 ± 500000 M⁻¹ s⁻¹; on WT VhChiP [9] (WT, sugar on cis side, 1 M KCl, 20 mM Hepes pH 7.4, +100 mV), 68 ± 1.4 × 10^6 M^−1s^−1; at WT VhChiP [9] (WT, sugar on trans side, read-out: kon), 5e+07 ± 1.2e+06 M⁻¹ s⁻¹; at WT VhChiP [9] (pH 7.4, WT, sugar on cis side, 1 M KCl, 20 mM Hepes pH 7.4, +100 mV), 5.6e+07 ± 1e+07 M⁻¹ s⁻¹. Besides, at VhChiP D1A mutant [2], the “K of D1A mutant less than WT channel” value is 2.5 fold. Besides, the “n (site), stoichiometry” value came to 2.8 ± 0.1 on truncated VhChiP [3]; 1.0 ± 0.02 at N-plug peptide (N-plug peptide alone); 3.2 ± 0.1 on WT VhChiP [4]; 3.0 ± 0.1 at VhChiP D1A mutant [7]; 2.3 ± 0.2 in assay [8]. Besides, the Kd at truncated VhChiP [3] (one-site binding fit) is 10 ± 0.3 µM; at N-plug peptide (N-plug 500 μM, no protein), 2.6 ± 0.12 mM; on WT VhChiP [4] (one-site binding fit), 300 ± 60 nM; at VhChiP D1A mutant [7], 1200 ± 200 nM; in assay [8], 2900 ± 70 nM. Also, in the assay with EcChiP [5], the K value is reported as 50,000 M^−1. Further, the “K of EcChiP less than that of VhChiP” value with EcChiP [6] is on record as “about 10 fold”. Further, the “τc (average residence time)” value at WT VhChiP [9] (WT, sugar on cis side) is 3.7 ± 0.3 ms and 3.7 ± 0.4 ms.

Consider `OC[C@H]1O[C@@](CO)(O[C@H]2O[C@H](CO)[C@@H](O)[C@H](O)[C@H]2O)[C@@H](O)[C@@H]1O` [sucrose], for which, in the assay on ScrY, the “binding constant (K)” value was 80 M⁻¹.

On to “N-plug peptide: synthesized peptide corresponding to the first nine residues (DGANSDAAK, Asp1-Lys9) of VhChiP”, for which the channel blocking events entry with truncated VhChiP [1] (truncated channel, no sugar, peptide at 10 and 40 μM on trans side, +100 mV, 1 M KCl, 20 mM Hepes pH 7.4) was “rare and short-lived blocking events”.

As to cyclodextrin, the “binding constant (K)” value in the assay with CymA is reported as 31,300 M^−1.

On to “N-terminally truncated VhChiP (lacking the N-plug) (domain or fragment)”, for which the stoichiometry N in [10] was determined as 3.

Source of the values: paper PMC10406626, “Structural displacement model of chitooligosaccharide transport through chitoporin” (The Journal of Biological Chemistry, 2023).
